# Activity calls are given as the source filed them.
# Legend:
# [1] = molecular target: T1, Alkaline phosphatase, tissue-nonspecific isozyme (Homo sapiens, UniProt P05186); experiment: potency against alkaline phosphatase TNAP – biochemical, luminescent, dose response, SAR follow-up (AID 1056)
# T1 sequence (P05186 whole entry): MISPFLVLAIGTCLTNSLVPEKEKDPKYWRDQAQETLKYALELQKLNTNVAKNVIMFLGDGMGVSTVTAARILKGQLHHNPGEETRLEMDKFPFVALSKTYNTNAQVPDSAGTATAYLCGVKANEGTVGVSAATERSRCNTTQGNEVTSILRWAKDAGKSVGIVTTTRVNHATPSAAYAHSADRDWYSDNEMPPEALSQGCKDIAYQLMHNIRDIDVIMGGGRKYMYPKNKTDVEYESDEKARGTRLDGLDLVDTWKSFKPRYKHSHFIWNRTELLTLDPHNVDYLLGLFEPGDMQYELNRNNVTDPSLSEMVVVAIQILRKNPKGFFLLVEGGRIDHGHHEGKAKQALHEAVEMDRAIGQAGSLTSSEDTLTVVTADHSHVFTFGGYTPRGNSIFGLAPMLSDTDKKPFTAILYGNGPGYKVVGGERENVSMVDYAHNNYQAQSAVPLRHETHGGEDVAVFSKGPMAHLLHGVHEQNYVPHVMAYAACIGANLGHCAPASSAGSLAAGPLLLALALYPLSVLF
# [2] = alpha-synuclein stem-loop luciferase translation blockers – H4 neuroglioma cells, luminescence, confirmation (AID 1988); assay type: functional, cell-based
# [3] = Trypanosoma cruzi growth suppression in host cells – NIH3T3 host cells, beta-gal luminescence, confirmation (AID 2044); assay type: functional, cell-based;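 note: intracellular parasites grown in NIH/3T3 mouse fibroblasts as host cells; luminescent beta-galactosidase reporter signal from transgenic T. cruzi replicating inside host cells; inhibitors lower the luminescence signal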
# [4] = cells
# [5] = molecular target: Alkaline phosphatase, placental type (Homo sapiens, UniProt P05187); experiment: human placental alkaline phosphatase inhibition – biochemical, luminescence, confirmation (AID 1512); assay type: functional
# Chain of Alkaline phosphatase, placental type (P05187 whole entry): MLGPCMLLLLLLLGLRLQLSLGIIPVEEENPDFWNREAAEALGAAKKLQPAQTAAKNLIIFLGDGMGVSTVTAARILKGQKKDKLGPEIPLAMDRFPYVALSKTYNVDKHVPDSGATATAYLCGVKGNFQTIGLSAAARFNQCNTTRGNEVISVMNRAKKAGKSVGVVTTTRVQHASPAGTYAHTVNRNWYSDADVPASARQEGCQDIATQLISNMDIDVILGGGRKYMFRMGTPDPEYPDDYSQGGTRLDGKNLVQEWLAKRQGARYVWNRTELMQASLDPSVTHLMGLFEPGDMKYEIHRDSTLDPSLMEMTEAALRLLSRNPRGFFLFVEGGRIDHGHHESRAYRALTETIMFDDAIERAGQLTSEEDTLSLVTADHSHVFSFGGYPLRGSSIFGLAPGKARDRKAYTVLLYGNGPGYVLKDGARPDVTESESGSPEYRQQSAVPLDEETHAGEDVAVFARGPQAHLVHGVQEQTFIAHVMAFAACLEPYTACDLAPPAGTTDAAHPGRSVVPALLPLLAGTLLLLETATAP
# [6] = molecular target: Luciferin 4-monooxygenase (Photinus pyralis, UniProt P08659); experiment: inhibition of purified Photinus pyralis luciferase – biochemical, luminescence, dose response (AID 1891)
# Chain of Luciferin 4-monooxygenase (P08659 whole entry): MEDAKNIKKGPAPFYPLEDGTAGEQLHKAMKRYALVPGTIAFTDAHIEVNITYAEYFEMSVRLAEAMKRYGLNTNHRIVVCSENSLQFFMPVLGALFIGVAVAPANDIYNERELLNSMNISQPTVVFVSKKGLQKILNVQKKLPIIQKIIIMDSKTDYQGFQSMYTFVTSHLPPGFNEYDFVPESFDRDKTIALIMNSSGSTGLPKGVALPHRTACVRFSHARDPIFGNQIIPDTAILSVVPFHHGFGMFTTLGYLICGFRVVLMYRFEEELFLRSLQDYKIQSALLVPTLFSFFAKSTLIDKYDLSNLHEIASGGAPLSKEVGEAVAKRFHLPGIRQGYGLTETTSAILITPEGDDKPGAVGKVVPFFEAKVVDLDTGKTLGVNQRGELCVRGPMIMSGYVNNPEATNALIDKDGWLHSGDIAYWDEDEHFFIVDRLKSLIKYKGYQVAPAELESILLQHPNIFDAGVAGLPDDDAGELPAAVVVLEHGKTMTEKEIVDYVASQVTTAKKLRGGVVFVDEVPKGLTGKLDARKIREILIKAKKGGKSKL
# [7] = Luminescence Cell-Based Dose Confirmation HTS to Identify Inhibitors of Platelet Dense Granule Release. [Related pubchem assays: 1663 (Primary HTS), 1678 (Summary of Project)]; assay type: functional
# [8] = luciferase reporter signal suppression in cells – H4 neuroglioma cells, luminescence, dose response (AID 1990); assay type: functional, cell-based
# [9] = molecular target: Oxysterols receptor LXR-beta (Homo sapiens, UniProt P55055); assay type: functional, cell-based;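 note: Cell-based luminescence dose-response assay of agonist activity at LXR, run as a confirmatory counterscreen to a daf-12 agonist screen; HEK293 cells with Gal4-LXR fusion and GAL4-driven luciferase reporter; agonist potency from rising luciferase signal of a Gal4-LXR reporter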
# Chain of Oxysterols receptor LXR-beta (P55055 whole entry, the tested form may be a part): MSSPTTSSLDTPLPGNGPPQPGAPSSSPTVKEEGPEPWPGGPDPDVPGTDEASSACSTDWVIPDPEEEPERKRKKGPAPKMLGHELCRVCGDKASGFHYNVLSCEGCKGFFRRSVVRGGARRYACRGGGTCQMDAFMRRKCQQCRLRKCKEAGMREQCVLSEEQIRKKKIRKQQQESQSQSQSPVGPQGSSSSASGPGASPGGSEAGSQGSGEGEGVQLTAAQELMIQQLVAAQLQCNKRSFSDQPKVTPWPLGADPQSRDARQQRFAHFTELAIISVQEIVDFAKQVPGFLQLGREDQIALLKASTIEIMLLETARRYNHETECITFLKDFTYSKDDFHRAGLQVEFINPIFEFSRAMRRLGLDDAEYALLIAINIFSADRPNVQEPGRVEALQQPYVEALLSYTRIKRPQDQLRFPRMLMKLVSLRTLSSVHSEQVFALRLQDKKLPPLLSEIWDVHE
# [10] = Luminescence Cell-Based Dose Response HTS to Identify Inhibitors of 5'UTR Stem-Loop Driven Prion Protein mRNA Translation in H4 Neuroglioblastoma Cells. [Related pubchem assays: 1827 (Project Summary), 1813 (Primary HTS)]; assay type: functional
# [11] = cytotoxicity toward HT-29 cells – cell-based, CellTiter-Glo luminescence, IC50, dose response (AID 1117330); assay type: functional
# [12] = SNU-C1 cell viability reduction, dose response, CellTiter-Glo luminescence (AID 1117323); assay type: functional, cell-based
# [13] = RKO cell viability reduction, dose response, CellTiter-Glo luminescence (AID 1117322); assay type: functional
# [14] = cytotoxicity toward Colo320 cells – cell-based, CellTiter-Glo luminescence, IC50, dose response (AID 1117334); assay type: functional; conditions: COLO 320
# [15] = Reduced DLD-1 viability, concentration-response, CellTiter-Glo luminescence (AID 1117352); assay type: functional
# [16] = cytotoxicity toward HCT116 cells – cell-based, CellTiter-Glo luminescence, IC50, dose response (AID 1117332); assay type: functional; conditions: HCT-116
# [17] = rise of 4N DNA cells, HeLa – IC50, dose response (AID 1117351); assay type: functional, cell-based
# [18] = system: BJ; experiment: cells; assay type: functional, cell-based; conditions: Homo sapiens
# [19] = CellTiter-Glo luminescence survival assay, SW480 colon tumor line, concentration-response curve, half-maximal inhibitory concentration (AID 1117338); assay type: functional
# [20] = system: BJ; experiment: BJ-TERT fibroblast viability loss – cell-based, RAS-independent, luminescence, dose response (AID 1933); assay type: functional; conditions: Homo sapiens
# [21] = system: BJ; experiment: BJ-TERT-LT-ST fibroblast viability loss – cell-based, RAS-independent, luminescence, dose response (AID 1935); assay type: functional; conditions: Homo sapiens;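 note: BJ fibroblasts immortalized with TERT plus LT and ST oncogenes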
# [22] = HCT116 cell viability decrease, GSK3B pretreatment – CellTiter-Glo, IC50, dose response (AID 1117339); assay type: functional; conditions: HCT-116
# [23] = DRD fibroblast viability loss – cell-based, non-viral oncogenic, luminescence, dose response (AID 1934); assay type: functional; conditions: Homo sapiens
# [24] = system: BJ; experiment: growth inhibition of engineered Ras-driven BJ cells – cell-based, alamar blue fluorescence, cherrypicked samples, dose response (AID 2631); assay type: functional; conditions: Homo sapiens;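 note: confirmatory dose-response assay in RAS-dependent BJ fibroblasts engineered with TERT, LT and ST, with cytotoxicity read by fluorescence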
# [25] = rise of 2N DNA cells, HeLa – IC50, dose response (AID 1117349); assay type: functional, cell-based
# [26] = molecular target: Glutathione-S-transferase (Schistosoma japonicum, UniProt Q26513); experiment: GST-antibody interaction or FRET quenching – biochemical, TR-FRET, artefact control for Vif-APOBEC3G degradation inhibitor project, dose response (AID 1117362); assay type: functional
# Chain of Glutathione-S-transferase (Q26513 whole entry): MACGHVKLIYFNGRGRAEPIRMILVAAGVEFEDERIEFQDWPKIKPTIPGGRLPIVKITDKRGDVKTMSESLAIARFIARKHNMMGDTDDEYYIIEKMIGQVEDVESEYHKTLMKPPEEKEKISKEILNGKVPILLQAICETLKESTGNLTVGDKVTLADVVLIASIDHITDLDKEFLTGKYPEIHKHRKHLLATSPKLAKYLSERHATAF
# [27] = molecular target: Eukaryotic translation initiation factor 4E (Mus musculus, UniProt P63073); experiment: blockers of eIF4G binding by eIF4E – biochemical, TR-FRET, dose response (AID 855); assay type: functional;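 note: potency for disrupting eIF4E binding to eIF4GI seen as loss of FRET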
# Chain of Eukaryotic translation initiation factor 4E (P63073 whole entry): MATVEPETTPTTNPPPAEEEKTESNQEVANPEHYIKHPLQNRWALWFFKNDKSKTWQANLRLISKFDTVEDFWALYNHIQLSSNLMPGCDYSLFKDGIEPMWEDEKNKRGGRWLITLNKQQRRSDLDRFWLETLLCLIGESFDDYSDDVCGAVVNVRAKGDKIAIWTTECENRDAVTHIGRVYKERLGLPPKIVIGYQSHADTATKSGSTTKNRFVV
# [28] = glucagon-like peptide-1 release potency in STC-1, concentration-response, half-maximal inhibitory concentration in the STC-1 line (AID 1117345); assay type: functional, cell-based
# [29] = Potency on glucagon-like peptide 1 release, dose-response in NCI-H716 cell line, half maximal inhibitory concentration (AID 1117344); assay type: functional, cell-based
# [30] = inhibition of Env-driven cell fusion – HIV entry, plate reader, dry powder, dose response (AID 687023); assay type: functional, cell-based
# [31] = molecular target: Bifunctional protein GlmU (Mycobacterium tuberculosis, UniProt P9WMN3); experiment: Inhibitors of Mycobacterial Glucosamine-1-phosphate acetyl transferase (GlmU). Secondary screen.; parameters: species or system Mycobacterium tuberculosis H37Rv
# Chain of Bifunctional protein GlmU (P9WMN3 whole entry): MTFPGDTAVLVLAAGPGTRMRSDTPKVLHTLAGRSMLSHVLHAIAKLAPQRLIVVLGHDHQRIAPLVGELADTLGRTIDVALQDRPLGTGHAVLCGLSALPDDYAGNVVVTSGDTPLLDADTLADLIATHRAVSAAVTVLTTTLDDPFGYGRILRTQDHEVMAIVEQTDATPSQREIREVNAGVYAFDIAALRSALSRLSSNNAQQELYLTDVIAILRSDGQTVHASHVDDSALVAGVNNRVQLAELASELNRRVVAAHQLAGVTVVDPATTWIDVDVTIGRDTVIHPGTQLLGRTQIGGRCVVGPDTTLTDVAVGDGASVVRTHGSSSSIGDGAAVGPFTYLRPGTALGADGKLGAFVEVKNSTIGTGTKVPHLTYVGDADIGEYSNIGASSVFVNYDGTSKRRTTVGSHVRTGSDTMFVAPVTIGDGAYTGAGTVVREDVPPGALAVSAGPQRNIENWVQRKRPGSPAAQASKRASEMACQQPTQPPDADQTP
# [32] = molecular target: NAD-dependent protein deacylase sirtuin-5, mitochondrial (Homo sapiens, UniProt Q9NXA8); experiment: sirtuin-5 deacylation blockers, concentration series – biochemical, fluorescence imaging, cherry-pick, set 5, dose response (AID 720591);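 note: desuccinylation of succinyl peptide AMC substrate read as fluorescence after trypsin release; potency of inhibitors that lower fluorescence and may act on trypsin instead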
# Chain of NAD-dependent protein deacylase sirtuin-5, mitochondrial (Q9NXA8 whole entry): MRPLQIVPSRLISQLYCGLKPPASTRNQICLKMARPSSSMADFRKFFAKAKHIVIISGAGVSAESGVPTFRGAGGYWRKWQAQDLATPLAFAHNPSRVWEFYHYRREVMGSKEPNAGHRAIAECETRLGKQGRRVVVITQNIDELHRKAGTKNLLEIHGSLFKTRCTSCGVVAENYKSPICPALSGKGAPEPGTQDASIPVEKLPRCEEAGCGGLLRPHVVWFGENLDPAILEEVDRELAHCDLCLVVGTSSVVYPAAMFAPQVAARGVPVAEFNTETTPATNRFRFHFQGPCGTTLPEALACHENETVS
# [33] = toxicity toward HEK293 cells – cell-based, dry powder samples, cytotoxicity control, dose response (AID 720567); assay type: functional
structure (smiles),measurement,setting,value
Clc1ccc(/C=C/c2nc3ccccc3[nH]2)c(Cl)c1,IC50,[1],5.78 µM (active)
same,EC50,[2],2.85 µM (inconclusive)
same,EC50,[3],3.15 µM (active)
same,EC50,[4],> 67.5 µM (inactive)
same,IC50,[5],2.85 µM (active)
same,EC50,[6],0.519 µM (active)
same,EC50,[7],8.31 µM (active)
same,EC50,[8],0.55 µM (active)
same,EC50,[9],> 67.5 µM (inactive)
same,EC50,[10],7.08 µM (active)
COCc1c(C(C)C)nc(C(C)C)c(/C=C/[C@@H](O)C[C@@H](O)CC(=O)O)c1-c1ccc(F)cc1 [CERIVASTATIN SODIUM],IC50,[11],1.21 µM (active)
same,IC50,[12],1.87 µM (active)
same,IC50,[13],1.01 µM (active)
same,IC50,[14],1.92 µM (active)
same,IC50,[15],2.51 µM (active)
same,IC50,[16],0.24 µM (active)
same,IC50,[17],> 10 µM (inactive)
same,EC50,[18],0.347 µM (inconclusive)
same,IC50,[19],0.143 µM (active)
same,EC50,[20],0.339 µM (inconclusive)
same,EC50,[21],0.356 µM (inconclusive)
same,IC50,[22],0.0529 µM (active)
same,EC50,[23],0.338 µM (inconclusive)
same,EC50,[24],< 0.104 µM (active)
same,IC50,[25],> 10 µM (inactive)
CN(C)[C@@H]1C(=O)C(C(=O)NCN2CCCC2)=C(O)[C@@]2(O)C(O)=C3C(=O)c4c(O)cccc4[C@@](C)(O)C3CC12 (stereo partly specified),IC50,[26],> 100 µM (active)
same,IC50,[27],12.3 µM (active)
c1ccc2ccccc2c1,IC50,[28],> 40 µM (inactive)
same,IC50,[29],20.8 µM (inactive)
Cc1noc(C)c1S(=O)(=O)Nc1cccc2c1O[C@H](CN(C)Cc1ccc(C(F)(F)F)cc1)[C@@H](C)CN([C@@H](C)CO)C2=O,AC50,[30],> 70 µM (inactive)
O=S1(=O)c2ccccc2N=NN1Cc1ccc(Cl)c(Cl)c1,IC50,[31],38.7 µM (active)
Cc1ccc(S(=O)(=O)N2[C@@H](c3ccccc3)C(C(=O)O)=CC[C@H]2c2ccc(Cl)cc2)cc1,AC50,[32],> 30 µM (inactive)
CCC1=Nc2cc(C(=O)NCCCOC)ccc2Sc2ccccc21,EC50,[2],0.127 µM (active)
same,EC50,[3],5.01 µM (active)
same,EC50,[18],13.2 µM (active)
same,AC50,[33],9.95 µM (active)
same,EC50,[20],1.07 µM (active)
same,EC50,[21],0.754 µM (inconclusive)
same,EC50,[8],8.66 µM (inconclusive)
same,EC50,[23],0.944 µM (active)
same,EC50,[10],16.1 µM (active)
